Assay results published in paper PMC9247001, “Ligand-induced structural transitions combined with paramagnetic ions facilitate unambiguous NMR assignments of methyl groups in large proteins” (Journal of Biomolecular Nmr, 2022).
Read-outs that look alike come from different tables or passages of the source.

Legend:
[1] = 1H NMR titration of di- and trivalent metals over UTP (KD1); assay type: binding; details: metal 0-1400 µM, UTP 239.2 or 250 µM, 293 K, 600 MHz, read-out: KD1, dissociation constant for the interaction of UTP with di- and trivalent metals
UTP:LmUGP complex = test: Four-states binding model, metal binding to UTP in complex with LmUGP (KD4); design: species or system Leishmania major; details: approximated by nonlinear least-squares minimization of the four-states model from KD1-3
[2] = design: method as in Zea et al. [2008]; details: isothermal titration calorimetry; ref Zea et al. [2008]; read-out: KD1, dissociation constant for the interaction of UTP with divalent metals (converted); cited from earlier work

`[Cl][Ce]([Cl])[Cl]` [CeCl3] gave a Kd [1] of 13 ± 4 µM and a Kd (UTP:LmUGP complex) of 17 ± 5 µM.

With `[Cl][Eu]([Cl])[Cl]` [EuCl3] the Kd [1] was 28 ± 9 µM and the Kd (UTP:LmUGP complex) was 38 ± 12 µM.

`[Cl][La]([Cl])[Cl]` [LaCl3] showed a Kd [1] of 11 ± 5 µM and a Kd (UTP:LmUGP complex) of 15 ± 7 µM.

`[Cl][Lu]([Cl])[Cl]` [LuCl3] gave a Kd [1] of 38 ± 17 µM and a Kd (UTP:LmUGP complex) of 46 ± 21 µM.

In the case of `[Cl-].[Cl-].[Mg+2]` [MgCl2], the Kd [1] is given as 82 ± 6 µM, the Kd (UTP:LmUGP complex) is given as 115 ± 10 µM and the Kd [2] is given as 70 µM.

For `[Cl][Mn][Cl]` [MnCl2], the Kd [2] is listed as 77 ± 12 µM.
